Values quoted from earlier work in US20260041710A1, “A NOVEL COMBINATION FOR ITS UTILITY IN MICRO AND MACRO VASCULAR COMPLICATIONS” (priority 2022, published 2026).
Read-outs that look alike come from different tables or passages of the source.

Columns and labels:
[1] = test system: 54 Irish patients of diabetic retinopathy; settings: single injection

For “Bevacizumab: full-length antibody that inhibits all isoforms of the VEGF-A family”, the BCVA (1 month after intravitreal injection, P<0.001) is given as 0.76, the BCVA (before intravitreal injection) is given as 0.90 and the “patients with greater than 50 microns reduction of macular thickness” value [1] is given as 9.2%. For the same substance, the “patients with greater than 100 microns reduction of macular thickness” value [1] was 20.3%, the “patients with less than 50 microns reduction in macular thickness” value [1] was 40.7% and the “patients without any improvement” value [1] was 29.6%. For the same substance, the “patients with greater than 50 microns reduction of macular thickness” value ([1]; of 54 patients) was 5 patients, the “patients with less than 50 microns reduction in macular thickness” value ([1]; of 54 patients) was 22 patients and the “patients without any improvement” value ([1]; of 54 patients) was 16 patients.
